These results are taken from the supplement of paper PMC10307832.

Compound in one test: Cn1c(=O)n(-c2ccc(C(C)(C)C#N)cc2)c2c3cc(-c4cnc5ccccc5c4)ccc3ncc21 [Dactolisib]
The test can be described thus: relative viability (nuclei count vs DMSO), 5 days (fraction); higher = more cells survive. The method, boiled down: (§1)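 Five library-drug doses, separated by factors of √10, were pinned into 1536-well plates holding lung cancer cell lines after an overnight stay at 37 °C. Cells were fixed, permeabilised and Hoechst-stained in one step after 5 days without medium change, then imaged at 4×. Viability compares treated-well with vehicle-well nuclei, counted in MetaXpress, as a median across plates. Passing plates had control CV below 25% and at least one doubling.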

Compound in a further test: C1CCC(CC1)N(CCNCCC2=C3C(=C(C=C2)O)NC(=O)CO3)C(=O)CCNCCC4=CC(=C(C=C4)Cl)Cl [AZ505]
The description is as above. The method, boiled down: as §1

Consider NCI-H2170, for which the relative viability with Dactolisib (0.002 µM) was 1.02; with Dactolisib (0.006325 µM), 0.971; with Dactolisib (0.02 µM), 0.96; in the test with Dactolisib (0.06325 µM), 0.648; with Dactolisib (0.2 µM), 0.447; with AZ505 (0.08 µM), 0.953. Besides, the relative viability in the test with AZ505 (0.253 µM) was determined as 1.01; with AZ505 (0.8 µM), 0.932; with AZ505 (2.53 µM), 0.998; with AZ505 (8 µM), 0.976.
Regarding NCI-H2228, the relative viability was found to be 1.13 with Dactolisib (0.002 µM); 0.812 with Dactolisib (0.006325 µM); 0.612 with Dactolisib (0.02 µM); 0.38 in the test with Dactolisib (0.06325 µM); 0.197 with Dactolisib (0.2 µM); 0.897 in the test with AZ505 (0.08 µM). In addition, the relative viability with AZ505 (0.253 µM) came out at 0.859; with AZ505 (0.8 µM) it was 0.821; with AZ505 (2.53 µM), 1.07; with AZ505 (8 µM), 0.885.
As to NCI-H2342, the relative viability with Dactolisib (0.002 µM) worked out at 0.997; with Dactolisib (0.006325 µM) it was 0.999; with Dactolisib (0.02 µM), 0.862; with Dactolisib (0.06325 µM), 0.843; in the test with Dactolisib (0.2 µM) it was 0.591; in the test with AZ505 (0.08 µM), 1.03. The relative viability was 1.08 with AZ505 (0.253 µM), 1.17 in the test with AZ505 (0.8 µM), 1.07 with AZ505 (2.53 µM) and 1.08 with AZ505 (8 µM).
For the cell line NCI-H2347, the relative viability with Dactolisib (0.002 µM) came out at 1.27; in the test with Dactolisib (0.006325 µM), 0.971; with Dactolisib (0.02 µM), 0.958; with Dactolisib (0.06325 µM) it was 0.771; with Dactolisib (0.2 µM) it was 0.517; with AZ505 (0.08 µM) it was 0.643. For the same cell line, the relative viability with AZ505 (0.253 µM) worked out at 0.759; with AZ505 (0.8 µM) it was 0.738; in the test with AZ505 (2.53 µM), 0.589; with AZ505 (8 µM), 0.833.
On to NCI-H2405, for which the relative viability in the test with Dactolisib (0.002 µM) was found to be 1.01; with Dactolisib (0.006325 µM) it was 0.993; with Dactolisib (0.02 µM), 0.97; in the test with Dactolisib (0.06325 µM), 0.607; with Dactolisib (0.2 µM), 0.447; with AZ505 (0.08 µM) it was 0.769. In addition, the relative viability with AZ505 (0.253 µM) is 0.707; with AZ505 (0.8 µM), 0.784; in the test with AZ505 (2.53 µM), 0.892; with AZ505 (8 µM), 0.82.
For NCI-H3122, the relative viability in the test with Dactolisib (0.002 µM) is 0.993; with Dactolisib (0.006325 µM) it was 1.01; with Dactolisib (0.02 µM), 0.981; with Dactolisib (0.06325 µM), 0.99; with Dactolisib (0.2 µM), 0.751; with AZ505 (0.08 µM), 0.972. Also, the relative viability in the test with AZ505 (0.253 µM) came to 1.01; in the test with AZ505 (0.8 µM), 0.975; in the test with AZ505 (2.53 µM) it was 0.931; with AZ505 (8 µM) it was 1.02.
For PC-3 [JPC-3], the relative viability with Dactolisib (0.002 µM) turned out to be 1.11; in the test with Dactolisib (0.006325 µM), 1.03; in the test with Dactolisib (0.02 µM), 1.03; in the test with Dactolisib (0.06325 µM), 0.898; with Dactolisib (0.2 µM) it was 0.664; in the test with AZ505 (0.08 µM), 0.956. In addition, the relative viability in the test with AZ505 (0.253 µM) stood at 0.978; with AZ505 (0.8 µM) it was 0.974; with AZ505 (2.53 µM), 0.926; with AZ505 (8 µM), 1.07.
As to PC-14, the relative viability stood at 1.05 in the test with Dactolisib (0.002 µM); 1.01 in the test with Dactolisib (0.006325 µM); 0.836 with Dactolisib (0.02 µM); 0.33 with Dactolisib (0.06325 µM); 0.182 with Dactolisib (0.2 µM); 0.915 with AZ505 (0.08 µM). The relative viability with AZ505 (0.253 µM) amounted to 0.96; with AZ505 (0.8 µM) it was 0.947; in the test with AZ505 (2.53 µM) it was 0.955; with AZ505 (8 µM) it was 1.04.
Consider RERF-LC-KJ, for which the relative viability was determined as 1 in the test with Dactolisib (0.002 µM); 0.961 with Dactolisib (0.006325 µM); 0.889 with Dactolisib (0.02 µM); 0.497 with Dactolisib (0.06325 µM); 0.509 with Dactolisib (0.2 µM); 0.947 with AZ505 (0.08 µM). The relative viability is 0.968 with AZ505 (0.253 µM), 0.925 with AZ505 (0.8 µM), 0.953 with AZ505 (2.53 µM) and 0.943 with AZ505 (8 µM).
Turning to SK-LU-1, the relative viability in the test with Dactolisib (0.002 µM) is 0.879; with Dactolisib (0.006325 µM), 0.995; in the test with Dactolisib (0.02 µM) it was 0.88; in the test with Dactolisib (0.06325 µM), 0.502; with Dactolisib (0.2 µM), 0.359; with AZ505 (0.08 µM) it was 0.634. In addition, the relative viability amounted to 0.683 with AZ505 (0.253 µM), 0.65 with AZ505 (0.8 µM), 0.679 with AZ505 (2.53 µM) and 0.797 in the test with AZ505 (8 µM).
For SK-MES-1, the relative viability with Dactolisib (0.002 µM) turned out to be 1.1; in the test with Dactolisib (0.006325 µM), 0.983; in the test with Dactolisib (0.02 µM) it was 0.914; with Dactolisib (0.06325 µM) it was 0.542; with Dactolisib (0.2 µM) it was 0.339; in the test with AZ505 (0.08 µM), 0.92. Also, the relative viability in the test with AZ505 (0.253 µM) came out at 0.953; with AZ505 (0.8 µM), 0.909; with AZ505 (2.53 µM), 0.943; in the test with AZ505 (8 µM), 0.935.
Turning to SW 900, the relative viability in the test with Dactolisib (0.002 µM) was 0.913; in the test with Dactolisib (0.006325 µM) it was 0.769; with Dactolisib (0.02 µM), 0.714; with Dactolisib (0.06325 µM) it was 0.329; with Dactolisib (0.2 µM) it was 0.346; in the test with AZ505 (0.08 µM), 0.857. Further, the relative viability with AZ505 (0.253 µM) was determined as 0.856; in the test with AZ505 (0.8 µM), 0.818; with AZ505 (2.53 µM), 0.963; with AZ505 (8 µM), 0.97.
On to SW 1573, for which the relative viability in the test with Dactolisib (0.002 µM) worked out at 1.07; in the test with Dactolisib (0.006325 µM) it was 0.838; in the test with Dactolisib (0.02 µM), 0.696; with Dactolisib (0.06325 µM), 0.414; in the test with Dactolisib (0.2 µM) it was 0.284; with AZ505 (0.08 µM), 0.9. The relative viability came to 0.964 with AZ505 (0.253 µM), 0.899 in the test with AZ505 (0.8 µM), 0.914 with AZ505 (2.53 µM) and 0.958 with AZ505 (8 µM).
